{"source": "paper PMC8765320", "about": "“Identification of a Proteasome-Targeting Arylsulfonamide with Potential for the Treatment of Chagas’ Disease” (Antimicrobial Agents and Chemotherapy, 2022)", "key": {"[1]": {"tested_on": "L. donovani promastigotes", "experiment": "L. donovani promastigote drug sensitivity assay", "assay_type": "cell-based, Leishmania donovani", "settings": "for EC50: Leishmania donovani", "method": "(§1) L. donovani promastigote ([35]), axenic amastigote ([25]), and T. brucei bloodstream form ([36]) drug sensitivity assays were carried out as previously described. HepG2 monolayers were washed twice in PBS, detached with 0.05% trypsin/EDTA, and then diluted with fully supplemented MEM growth medium. Cells were pelleted at 80 × g for 5 min and resuspended in fully supplemented growth medium. Cells were seeded into 96-well plates (5 × 10^4/well) and allowed to adhere prior to exposure to test compounds. Plates were incubated at 37°C in the presence of 5% CO2 for 72 h. After incubation, resazurin (20 μl of a 2.5-mg/ml^−1 stock solution) was added to each well, followed by incubation for a further 2 h prior to fluorescence being read as described above."}, "[2]": {"tested_on": "L. donovani axenic amastigote", "experiment": "L. donovani axenic amastigote drug sensitivity assay", "assay_type": "cell-based", "settings": "Leishmania donovani, weighted mean, n ≥ 3, read-out: Mean compound 1 EC50 ± SD", "method": "as §1"}, "T. brucei BSF": {"tested_on": "T. brucei BSF", "experiment": "T. brucei bloodstream form drug sensitivity assay", "assay_type": "cell-based", "settings": "Trypanosoma brucei, weighted mean, n ≥ 3, read-out: Mean compound 1 EC50 ± SD", "method": "as §1"}, "[3]": {"tested_on": "cytosolic T. cruzi malic enzyme (cTcME; C4B63_28g106)", "experiment": "Thermal proteome profiling, cTcME", "assay_type": "binding, Trypanosoma cruzi", "settings": "for ΔTm 1 / ΔTm 2: malic enzyme C4B63_28g106", "method": "(§2) Aliquots of each lysate were then incubated at designated temperatures (33 to 69°C) and then, for each temperature, insoluble (denatured) proteins were removed. The resulting soluble protein samples were reduced, alkylated, and digested with trypsin prior to derivatization with tandem mass tags. Pooled peptides were fractionated by high-pressure liquid chromatography and analyzed by LC/MS-MS prior to identification and quantitation. The melting points of identified proteins were then established using the TPP software package. Full melt curves were established for 6,771 proteins, representing 39.4% coverage of the T. cruzi proteome.\n(§3) T. cruzi (X10/7 strain) mid-log-phase epimastigotes (∼1 × 10^10) were harvested by centrifugation (1,912 × g, 15 min, 4°C) and washed with ice-cold PBS (1,912 × g, 5 min, 4°C); finally, the cell pellet was resuspended in 8 ml of ice-cold lysis buffer (1 mM EDTA, 1 mM dithiothreitol [DTT], 100 μM TLCK [Nα-p-tosyl-L-lysine chloromethyl ketone], and 1× Roche EDTA-free COmplete protease inhibitor cocktail in 50 mM potassium phosphate buffer [pH 7.4]). The cell suspension was submitted to three freeze-thaw cycles in a dry ice/ethanol bath to biologically inactivate the parasites and then submitted to cell disruption (Constant Systems, UK) at 30 kpsi. The resulting lysate was centrifuged (100,000 × g, 20 min, 4°C), the supernatant was collected, and the protein concentration was determined using a Bio-Rad protein assay.\nEach 2-ml aliquot (drug and vehicle treated) was divided into 10 × 100-μl aliquots in 0.5-ml thin-walled PCR tubes, followed by incubation at a designated temperature (33, 37, 41, 45, 49, 53, 57, 61, 65, or 69°C) for 3 min, followed in turn by incubation at room temperature for 3 min before each sample was placed on ice. Each aliquot was centrifuged (100,000 × g, 20 min, 4°C), the supernatants were harvested, and the protein concentration was assessed.\nAll aspects of sample processing, peptide and protein identification and quantitation, and target identification were carried out as previously described ([15]). However, in this instance, proteins were identified by searching the MS and MS/MS data for the peptides against T. cruzi proteome Dm28c 2018 version 50 (https://tritrypdb.org/tritrypdb)."}, "[4]": {"tested_on": "mitochondrial T. cruzi malic enzyme (mTcME)", "experiment": "Thermal proteome profiling, mTcME", "assay_type": "binding, Trypanosoma cruzi", "settings": "lysate, compound at 10× EC50", "method": "as §2\nas §3, with “The cell suspension was submitted to three freeze-thaw cycles in a dry ice/ethanol bath to biologically inactivate the parasites and then submitted to cell disruption (Constant Systems, UK) at 30 kpsi.” left out, “assay. […]” for “assay.”"}, "[5]": {"tested_on": "L. donovani, T. cruzi, and T. brucei", "experiment": "Phenotypic screening against three kinetoplastids", "assay_type": "cell-based", "settings": "range over all three kinetoplastids; read-out: EC50 values against the mammalian stages of these parasites"}, "[6]": {"tested_on": "L. donovani intramacrophage", "design": "method as in Peña et al. (12)", "settings": "ref Peña et al. (12), read-out: Mean compound 1 EC50; cited from earlier work"}, "CYP51": {"tested_on": "CYP51", "design": "method as in PMID 25740547", "settings": "cited from earlier work"}}, "note": "Read-outs that look alike come from different tables or passages of the source."}
{"smiles": "COc1ccc(NS(=O)(=O)c2cc(-c3cc(C)n[nH]3)ccc2C)cc1OC", "note": "[Compound 1]", "values": [{"measurement": "fold change versus WT", "setting": "[1]; L. donovani cell line cLdME OE", "value": "="}, {"measurement": "fold change versus WT", "setting": "[1]; L. donovani compound 2-resistant line (G197S in β5 subunit)", "value": 260, "unit": "fold"}, {"measurement": "EC99 in promastigotes", "setting": "[1]; L. donovani promastigotes", "value": 300, "unit": "nM"}, {"measurement": "EC50", "setting": "[1]; read-out: Compound 1 EC50 values, L. donovani cell line Compound 2 RES III (G197S in β5 subunit)", "value": "26 ± 4", "unit": "µM"}, {"measurement": "EC50", "setting": "[1]; L. donovani cell line Wild-type, read-out: Compound 1 EC50 values", "value": "0.1 ± 0.005", "unit": "µM"}, {"measurement": "EC50", "setting": "[1]; L. donovani promastigote, weighted mean, n ≥ 3, read-out: Mean compound 1 EC50 ± SD", "value": "0.1 ± 0.005", "unit": "µM"}, {"measurement": "EC50", "setting": "[2]", "value": "0.7 ± 0.1", "unit": "µM"}, {"measurement": "EC50", "setting": "T. brucei BSF", "value": "0.3 ± 0.013", "unit": "µM"}, {"measurement": "increase in thermal stability of cTcME (mean ΔTm)", "setting": "[3]; experiment 1, lysate, compound at 10× EC50 (20 μM)", "value": 8.8, "unit": "°C"}, {"measurement": "ΔTm 1", "setting": "[3]; biological replicate 1", "value": 8.6, "unit": "°C"}, {"measurement": "ΔTm 2", "setting": "[3]; biological replicate 1", "value": 9.08, "unit": "°C"}, {"measurement": "ΔTm 1", "setting": "[3]; biological replicate 2", "value": 5.6, "unit": "°C"}, {"measurement": "ΔTm 2", "setting": "[3]; biological replicate 2", "value": 3.73, "unit": "°C"}, {"measurement": "impact on the thermal stability of mTcME", "setting": "[4]", "value": "no impact"}, {"measurement": "EC50", "setting": "[5]", "value": "0.1 to 8", "unit": "µM"}, {"measurement": "EC50", "setting": "[6]", "value": 8, "unit": "µM"}, {"measurement": "CYP51 pIC50", "setting": "CYP51", "value": 4.4}]}
